The values that follow come from PubChem BioAssay (NCI).

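Briefly, cells in 96-well plates were exposed to five compound concentrations for 48 h, and endpoints were estimated by linear interpolation. TGI: total growth inhibition.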

The first assay concerns PC-3 prostate. In words: growth of human tumour cells (NCI), 48 h.
Take `COc1cccc2c1C(=O)c1c(O)c3c(c(O)c1C2=O)C[C@@](O)(C(=O)CO)C[C@@H]3OC1CC(N)C(OC)C(C)O1` (stereo partly specified): the TGI amounted to 1.64 µM.

Another assay deals with MALME-3M melanoma. Put plainly: growth of human tumour cells (NCI), 48 h.
As for `CC#C[P+](c1ccccc1)(c1ccccc1)c1ccccc1`, the TGI came to 22.4 µM.

On to `CCCC(O)C(NC(=O)CCl)C(=O)O` (stereo unspecified), for which the TGI was > 100 µM.

Consider `COc1cc(/C=C/C(=O)O)ccc1C(=O)OCc1ccccc1`, for which the TGI was > 100 µM.

For the molecule `O=C(CC(=O)c1ccccc1)CC(O)(c1ccccc1)c1ccccc1`, the TGI came out at 25.4 µM.

As to `COc1cccc2c1C(=O)c1c(O)c3c(c(O)c1C2=O)C[C@@](O)(C(=O)CO)C[C@@H]3OC1CC(N)C(OC)C(C)O1` (stereo partly specified), the TGI amounted to 0.283 µM.

With `COc1cc2c(cc1O)C1C(O)C(O)C=C3CCN(C2)C31` (stereo unspecified), the TGI came to 3.86 µM.

As to `CC(C)=CCc1c(O)ccc2ccc(=O)oc12`, the TGI was > 100 µM.

The next assay concerns OVCAR-3 ovarian. In words: growth of human tumour cells (NCI), 48 h.
On to `CC#C[P+](c1ccccc1)(c1ccccc1)c1ccccc1`, for which the TGI came to 14.3 µM.

On to `CCCC(O)C(NC(=O)CCl)C(=O)O` (stereo unspecified), for which the TGI was > 100 µM.

On to `COc1cc(/C=C/C(=O)O)ccc1C(=O)OCc1ccccc1`, for which the TGI is > 100 µM.

The molecule `O=C(CC(=O)c1ccccc1)CC(O)(c1ccccc1)c1ccccc1` returned a TGI of 17.3 µM.

Turning to `COc1cccc2c1C(=O)c1c(O)c3c(c(O)c1C2=O)C[C@@](O)(C(=O)CO)C[C@@H]3OC1CC(N)C(OC)C(C)O1` (stereo partly specified), the TGI stood at 10.6 µM.

In turn, `COc1cc2c(cc1O)C1C(O)C(O)C=C3CCN(C2)C31` (stereo unspecified) displayed a TGI of 8.12 µM.

As to `CC(C)=CCc1c(O)ccc2ccc(=O)oc12`, the TGI is > 100 µM.

The subject of the next assay is RPMI-8226 leukemia. In words: growth of human tumour cells (NCI), 48 h.
As to `CCCC(O)C(NC(=O)CCl)C(=O)O` (stereo unspecified), the TGI is > 100 µM.

For `COc1cc(/C=C/C(=O)O)ccc1C(=O)OCc1ccccc1`, the TGI was > 100 µM.

With `O=C(CC(=O)c1ccccc1)CC(O)(c1ccccc1)c1ccccc1`, the TGI was > 100 µM.

For the molecule `COc1cccc2c1C(=O)c1c(O)c3c(c(O)c1C2=O)C[C@@](O)(C(=O)CO)C[C@@H]3OC1CC(N)C(OC)C(C)O1` (stereo partly specified), the TGI came out at 0.374 µM.

`COc1cc2c(cc1O)C1C(O)C(O)C=C3CCN(C2)C31` (stereo unspecified): the TGI was determined as 11.7 µM.

For the molecule `CC(C)=CCc1c(O)ccc2ccc(=O)oc12`, the TGI is > 100 µM.

In the next assay the test system is HT29 colon. Put plainly: growth of human tumour cells (NCI), 48 h.
The molecule `CC#C[P+](c1ccccc1)(c1ccccc1)c1ccccc1` showed a TGI of 12.9 µM.

In the case of `CCCC(O)C(NC(=O)CCl)C(=O)O` (stereo unspecified), the TGI is > 100 µM.

Take `COc1cc(/C=C/C(=O)O)ccc1C(=O)OCc1ccccc1`: the TGI is > 100 µM.

As to `O=C(CC(=O)c1ccccc1)CC(O)(c1ccccc1)c1ccccc1`, the TGI came out at 23.7 µM.

Turning to `COc1cccc2c1C(=O)c1c(O)c3c(c(O)c1C2=O)C[C@@](O)(C(=O)CO)C[C@@H]3OC1CC(N)C(OC)C(C)O1` (stereo partly specified), the TGI stood at 1.66 µM.

Consider `COc1cc2c(cc1O)C1C(O)C(O)C=C3CCN(C2)C31` (stereo unspecified), for which the TGI is 18.9 µM.

With `CC(C)=CCc1c(O)ccc2ccc(=O)oc12`, the TGI is > 100 µM.

The next assay relates to SK-MEL-2 melanoma. In words: growth of human tumour cells (NCI), 48 h.
Take `CC#C[P+](c1ccccc1)(c1ccccc1)c1ccccc1`: the TGI is 5.75 µM.

As to `CCCC(O)C(NC(=O)CCl)C(=O)O` (stereo unspecified), the TGI is > 100 µM.

Turning to `COc1cc(/C=C/C(=O)O)ccc1C(=O)OCc1ccccc1`, the TGI is > 100 µM.

For `O=C(CC(=O)c1ccccc1)CC(O)(c1ccccc1)c1ccccc1`, the TGI is 22.2 µM.

With `COc1cccc2c1C(=O)c1c(O)c3c(c(O)c1C2=O)C[C@@](O)(C(=O)CO)C[C@@H]3OC1CC(N)C(OC)C(C)O1` (stereo partly specified), the TGI was determined as 0.407 µM.

Molecule `COc1cc2c(cc1O)C1C(O)C(O)C=C3CCN(C2)C31` (stereo unspecified) registered a TGI of 5.74 µM.

Regarding `CC(C)=CCc1c(O)ccc2ccc(=O)oc12`, the TGI was > 100 µM.

A further assay has as its system LOX IMVI melanoma. Put plainly: growth of human tumour cells (NCI), 48 h.
`CC#C[P+](c1ccccc1)(c1ccccc1)c1ccccc1` registered a TGI of 6.75 µM.

With `CCCC(O)C(NC(=O)CCl)C(=O)O` (stereo unspecified), the TGI is > 100 µM.

With `COc1cc(/C=C/C(=O)O)ccc1C(=O)OCc1ccccc1`, the TGI was > 100 µM.

`COc1cccc2c1C(=O)c1c(O)c3c(c(O)c1C2=O)C[C@@](O)(C(=O)CO)C[C@@H]3OC1CC(N)C(OC)C(C)O1` (stereo partly specified) registered a TGI of 0.181 µM.

The molecule `COc1cc2c(cc1O)C1C(O)C(O)C=C3CCN(C2)C31` (stereo unspecified) came in with a TGI of 8.19 µM.

Regarding `CC(C)=CCc1c(O)ccc2ccc(=O)oc12`, the TGI was > 100 µM.

A further assay relates to UACC-62 melanoma. Put plainly: growth of human tumour cells (NCI), 48 h.
As to `CC#C[P+](c1ccccc1)(c1ccccc1)c1ccccc1`, the TGI was found to be 14.8 µM.

Turning to `CCCC(O)C(NC(=O)CCl)C(=O)O` (stereo unspecified), the TGI is > 100 µM.

For the molecule `COc1cc(/C=C/C(=O)O)ccc1C(=O)OCc1ccccc1`, the TGI was > 100 µM.

Molecule `O=C(CC(=O)c1ccccc1)CC(O)(c1ccccc1)c1ccccc1` returned a TGI of 14.9 µM.

`COc1cccc2c1C(=O)c1c(O)c3c(c(O)c1C2=O)C[C@@](O)(C(=O)CO)C[C@@H]3OC1CC(N)C(OC)C(C)O1` (stereo partly specified) gave a TGI of 0.227 µM.

`COc1cc2c(cc1O)C1C(O)C(O)C=C3CCN(C2)C31` (stereo unspecified) gave a TGI of 3.97 µM.

With `CC(C)=CCc1c(O)ccc2ccc(=O)oc12`, the TGI was > 100 µM.

The next assay relates to HCT-116 colon. Put plainly: growth of human tumour cells (NCI), 48 h.
`CC#C[P+](c1ccccc1)(c1ccccc1)c1ccccc1` yielded a TGI of 13.3 µM.

On to `CCCC(O)C(NC(=O)CCl)C(=O)O` (stereo unspecified), for which the TGI was > 100 µM.

As to `COc1cc(/C=C/C(=O)O)ccc1C(=O)OCc1ccccc1`, the TGI is > 100 µM.

In turn, `O=C(CC(=O)c1ccccc1)CC(O)(c1ccccc1)c1ccccc1` returned a TGI of 16.6 µM.

`COc1cccc2c1C(=O)c1c(O)c3c(c(O)c1C2=O)C[C@@](O)(C(=O)CO)C[C@@H]3OC1CC(N)C(OC)C(C)O1` (stereo partly specified): the TGI is > 100 µM.

As for `COc1cc2c(cc1O)C1C(O)C(O)C=C3CCN(C2)C31` (stereo unspecified), the TGI stood at 2.25 µM.

In the case of `CC(C)=CCc1c(O)ccc2ccc(=O)oc12`, the TGI was > 100 µM.

The subject of the next assay is SNB-19 CNS. In words: growth of human tumour cells (NCI), 48 h.
Molecule `CC#C[P+](c1ccccc1)(c1ccccc1)c1ccccc1` returned a TGI of 15 µM.
